{"source": "the supplement of paper PMC10307832", "assay_in_all_cases": "relative viability (nuclei count vs DMSO), 5 days (fraction); higher = more cells survive", "key": {"Crenolanib + Crizotinib": {"compound": "CC1(COc2ccc3c(c2)ncn3-c2ccc3cccc(N4CCC(N)CC4)c3n2)COC1 [Crenolanib] + C[C@@H](Oc1cc(-c2cnn(C3CCNCC3)c2)cnc1N)c1c(Cl)ccc(F)c1Cl [Crizotinib] (partner 1 µM)", "method_in_brief": "(§1)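 Lung cancer cell lines in 1536-well plates got either a single drug or a fixed anchor-drug dose together with five library-drug doses (not always all listed) in √10 steps, by pin tool, on the day after seeding. Nuclei were counted after 5 days, and relative viability is the treated-to-vehicle ratio of nuclei counts. Values are medians of duplicate plates.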"}, "Tivantinib + Trametinib": {"compound": "O=C1NC(=O)[C@@H](c2cn3c4c(cccc24)CCC3)[C@@H]1c1c[nH]c2ccccc12 [Tivantinib] + CC(=O)Nc1cccc(-n2c(=O)n(C3CC3)c(=O)c3c(Nc4ccc(I)cc4F)n(C)c(=O)c(C)c32)c1 [Trametinib] (partner 0.02 µM)", "method_in_brief": "as §1"}, "Tivantinib + Pictilisib": {"compound": "O=C1NC(=O)[C@@H](c2cn3c4c(cccc24)CCC3)[C@@H]1c1c[nH]c2ccccc12 [Tivantinib] + CS(=O)(=O)N1CCN(Cc2cc3nc(-c4cccc5[nH]ncc45)nc(N4CCOCC4)c3s2)CC1 [Pictilisib] (partner 1 µM)", "method_in_brief": "as §1"}, "Tivantinib + Vorinostat": {"compound": "O=C1NC(=O)[C@@H](c2cn3c4c(cccc24)CCC3)[C@@H]1c1c[nH]c2ccccc12 [Tivantinib] + O=C(CCCCCCC(=O)Nc1ccccc1)NO [Vorinostat] (partner 1 µM)", "method_in_brief": "as §1"}}, "data": [{"cell line": "UMC-11", "values": [{"measurement": "relative viability", "setting": "Crenolanib + Crizotinib; first compound 0.01 µM", "result": 0.624}, {"measurement": "relative viability", "setting": "Crenolanib + Crizotinib; first compound 0.03162 µM", "result": 0.568}, {"measurement": "relative viability", "setting": "Crenolanib + Crizotinib; first compound 0.1 µM", "result": 0.674}, {"measurement": "relative viability", "setting": "Crenolanib + Crizotinib; first compound 0.3162 µM", "result": 0.804}, {"measurement": "relative viability", "setting": "Crenolanib + Crizotinib; first compound 1 µM", "result": 0.606}, {"measurement": "relative viability", "setting": "Tivantinib + Trametinib; first compound 0.01 µM", "result": 0.678}, {"measurement": "relative viability", "setting": "Tivantinib + Trametinib; first compound 0.03162 µM", "result": 0.451}, {"measurement": "relative viability", "setting": "Tivantinib + Trametinib; first compound 0.1 µM", "result": 0.666}, {"measurement": "relative viability", "setting": "Tivantinib + Trametinib; first compound 0.3162 µM", "result": 0.693}, {"measurement": "relative viability", "setting": "Tivantinib + Pictilisib; first compound 0.01 µM", "result": 0.733}, {"measurement": "relative viability", "setting": "Tivantinib + Pictilisib; first compound 0.03162 µM", "result": 0.423}, {"measurement": "relative viability", "setting": "Tivantinib + Pictilisib; first compound 0.1 µM", "result": 0.75}, {"measurement": "relative viability", "setting": "Tivantinib + Pictilisib; first compound 0.3162 µM", "result": 0.954}, {"measurement": "relative viability", "setting": "Tivantinib + Vorinostat; first compound 0.01 µM", "result": 0.383}, {"measurement": "relative viability", "setting": "Tivantinib + Vorinostat; first compound 0.03162 µM", "result": 0.392}, {"measurement": "relative viability", "setting": "Tivantinib + Vorinostat; first compound 0.1 µM", "result": 0.328}, {"measurement": "relative viability", "setting": "Tivantinib + Vorinostat; first compound 0.3162 µM", "result": 0.385}]}]}
